Source: ChEMBL document CHEMBL3745712, “Identification of N-(4-((1R,3S,5S)-3-Amino-5-methylcyclohexyl)pyridin-3-yl)-6-(2,6-difluorophenyl)-5-fluoropicolinamide (PIM447), a Potent and Selective Proviral Insertion Site of Moloney Murine Leukemia (PIM) 1, 2, and 3 Kinase Inhibitor in Clinical Trials for Hematological Malignancies” (J Med Chem, 2015)

Legend:
in vitro [1] = details: human, microsomes
in vitro [2] = details: rat, microsomes
in vitro [3] = details: human, microsomes; remark: listed apart in the source
in vitro [4] = details: rat, microsomes; remark: listed apart in the source
cells [5] = assay type: functional, cell-based; details: Homo sapiens, KMS-11, 72 h
Description: Antiproliferative activity against luciferase expressing human KMS11 cells after 72 hrs by Cell-TiterGlo assay

[6] = target: Serine/threonine-protein kinase pim-3 (Homo sapiens, UniProt Q86V86)
[7] = target: Serine/threonine-protein kinase pim-1 (Homo sapiens, UniProt P11309)
Sequence of Serine/threonine-protein kinase pim-1 (P11309 whole entry): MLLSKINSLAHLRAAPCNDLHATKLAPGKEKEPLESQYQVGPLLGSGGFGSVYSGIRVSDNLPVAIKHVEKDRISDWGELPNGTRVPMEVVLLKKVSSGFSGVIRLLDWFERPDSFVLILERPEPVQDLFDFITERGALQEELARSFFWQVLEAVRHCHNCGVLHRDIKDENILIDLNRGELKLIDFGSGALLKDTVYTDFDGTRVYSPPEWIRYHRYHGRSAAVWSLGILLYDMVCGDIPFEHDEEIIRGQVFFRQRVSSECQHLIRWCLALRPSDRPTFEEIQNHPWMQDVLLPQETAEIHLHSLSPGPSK

cells [8] = assay type: cell-based, KMS11; details: Homo sapiens, KMS-11, 1 h

| half-life at 0.5 h, 1 µM (in vitro [1]) | half-life at 0.5 h, 1 µM (in vitro [2]) | CLhep predicted at 0.5 h, 1 µM (in vitro [3]) | CLhep predicted at 0.5 h, 1 µM (in vitro [4]) | EC50 (cells [5]) | Ki [6] | Ki [7] | EC50 (cells [8]) | Compound |
| --- | --- | --- | --- | --- | --- | --- | --- | --- |
| 85 min | 8 min | 10 mL/min/kg |  |  |  |  |  | Nc1ccc(C2CCCCC2)nc1C(=O)Nc1cnccc1[C@@H]1CCC[C@H](N)C1 |
| 49 min | 9 min | 13 mL/min/kg | 47 mL/min/kg | 390 nM |  |  |  | C[C@@H]1C[C@H](N)CN(c2ccncc2NC(=O)c2csc(-c3c(F)cccc3F)n2)C1 |
|  |  |  |  | 670 nM |  |  |  | N[C@@H]1CCCN(c2c(/C=C3\SC(=O)NC3=O)cccc2-c2ccccc2)C1 |
| 25 min | 13 min | 16 mL/min/kg | 44 mL/min/kg | 1400 nM | < 3 nM | < 1 nM |  | N[C@H]1CCCN(c2ccncc2NC(=O)c2ccc(F)c(-c3c(F)cccc3F)n2)C1 |
| 121 min | 85 min | 8 mL/min/kg | 21 mL/min/kg | 5000 nM |  |  |  | N[C@H]1CCC[C@@H](c2ccncc2NC(=O)c2csc(-c3c(F)cccc3F)n2)C1 |
| > 180 min | 65 min | < 6 mL/min/kg | 24 mL/min/kg | 910 nM | 4 nM | < 1 nM | 320 nM | C[C@@H]1C[C@H](N)C[C@H](c2ccncc2NC(=O)c2csc(-c3c(F)cccc3F)n2)C1 |
| > 180 min | 92 min | < 6 mL/min/kg |  |  |  |  |  | C[C@@H]1C[C@H](N)C[C@H](c2ccncc2NC(=O)c2ccc(F)c(-c3ccccc3F)n2)C1 |
| 40 min | 20 min | 14 mL/min/kg | 40 mL/min/kg |  |  |  |  | C[C@@H]1C[C@H](N)CN(c2ccncc2NC(=O)c2ccc(F)c(-c3c(F)cccc3F)n2)C1 |
| 70 min | 6 min | 11 mL/min/kg | 49 mL/min/kg | 1200 nM |  |  |  | N[C@H]1CCCN(c2ccncc2NC(=O)c2csc(-c3c(F)cccc3F)n2)C1 |
| 13 min | 11 min | 18 mL/min/kg | 45 mL/min/kg |  | < 3 nM |  |  | C[C@@H]1C[C@H](N)CN(c2ccncc2NC(=O)c2ccc(F)c(-c3ccccc3F)n2)C1 |
| 14 min | 3 min | 18 mL/min/kg | 52 mL/min/kg |  | 3 nM | < 1 nM |  | Nc1ccc(C2CCCCC2)nc1C(=O)Nc1cnccc1N1CCC[C@H](N)C1 |
|  |  |  |  | 5000 nM |  |  |  | CN1CCC(CNc2ccc3ncc(-c4cccc(OC(F)(F)F)c4)n3n2)CC1 [SGI-1776] |
